Broadly, the IC50 is the concentration that gives 50% inhibition. What is called melting point is the temperature of the solid-liquid transition.

Our source for the IC50 and melting point values is publication PMC4462585, “Synthesis and Biological Evaluation of 3-Alkyl-1,5-Diaryl-1H-Pyrazoles as Rigid Analogues of Combretastatin A-4 with Potent Antiproliferative Activity” (PLoS ONE, 2015).

In data set [1] the test system is pulmonary adenocarcinoma cell line A549. Put plainly: MTT antiproliferative assay, A549. Conditions: Homo sapiens, 72 h drug exposure, triplicate, read-out: Antiproliferative activity (IC50 ± SD) A549. Format: cell-based. The text has this: (§1) Pulmonary adenocarcinoma cell lines (A549) and gastric adenocarcinoma cell lines (SGC-7901) were provided as gifts (purchased from the Cell Resource Center of Shanghai Institutes for Biological Sciences) from the China-Japan Research Institute of Medical and Pharmaceutical Sciences, Shenyang Pharmaceutical University. Fibrosarcoma cell lines (HT-1080) were purchased from the Cell Resource Center of Shanghai Institutes for Biological Sciences. All cells were maintained in DMEM containing 1% antibiotics (100 units of penicillin and […] per mL in 0.9% normal saline) and 10% foetal bovine serum in a humidified atmosphere containing 5% CO2 at 37°C.
(§2) Antiproliferative activities of CA-4 and the target compounds were measured using a colourimetric assay using 3-(4,5-dimethylthiazol-2yl-)-2,5-diphenyltetrazolium bromide (MTT). Approximately 3 × 10^4 cells were seeded in a 96-well plate. After 24 h of incubation at 37°C, cells were exposed to compounds of differing concentrations (0.0008 μg/mL, 0.004 μg/mL, 0.02 μg/mL, 0.10 μg/mL, 0.50 μg/mL, 2.5 μg/mL, 12.5 μg/mL, 62.5 μg/mL) for 72 h. After treatment, cells were washed with 1X PBS followed by addition of 100 μL of 0.05% MTT reagent to each well, followed by incubation for 4 h at 37°C. After incubation, the supernatant from each well was carefully removed and the formazan crystals were dissolved in 100 μL of DMSO. The colour density was measured spectrophotometrically at 490 nm using a microplate reader (SpectraMax Plus384, Molecular Devices Corp., USA). The percentage of cell growth inhibition was calculated as follow: inhibition ratio % = (Acontrol—Atreated) / Acontrol × 100%. The 50% inhibitory concentration (IC50) was defined as the concentration that reduced the absorbance of the untreated wells by 50% of the vehicle in the MTT assay.
(Formazan colour is commonly taken as a measure of viable cells.)

Data set [2] deals with fibrosarcoma cell line HT-1080. The data set is described as follows: MTT antiproliferative assay, HT-1080. Format: cell-based. Conditions: Homo sapiens, 72 h drug exposure, triplicate, read-out: Antiproliferative activity (IC50 ± SD) HT-1080.
From the text: as §1, §2

In data set [3] the test system is gastric adenocarcinoma cell line SGC-7901. The data set is described as follows: MTT antiproliferative assay, SGC-7901. Conditions: Homo sapiens, 72 h drug exposure, triplicate, read-out: Antiproliferative activity (IC50 ± SD) SGC-7901. Type of data set: cell-based.
From the text: as §1, §2

For `COc1cc(-n2nc(C)cc2-c2ccccc2)cc(OC)c1OC` [Compound 7a, 3-Methyl-5-phenyl-1-(3,4,5-trimethoxyphenyl)-1H-pyrazole], the melting point was 77 to 78 °C. In data set [1], the IC50 is above 100 µM. In addition, the IC50 in data set [2] is above 100 µM. Besides, in data set [3], the IC50 was above 100 µM.

In the case of `COc1ccc(-c2cc(C)nn2-c2cc(OC)c(OC)c(OC)c2)cc1` [Compound 7b, 3-Methyl-5-(4-methoxyphenyl)-1-(3,4,5-trimethoxy-phenyl)-1H-pyrazole], the melting point is 118 to 119 °C. The IC50 in data set [1] worked out at 15.2 ± 2.2 µM. The half-maximal inhibitory concentration (IC50) in data set [2] amounted to 1.01 ± 0.12 µM. Besides, the IC50 in data set [3] is 0.73 ± 0.09 µM.

For the molecule `COc1cc(-n2nc(C)cc2-c2ccc(C)cc2)cc(OC)c1OC` [Compound 7c, 3-Methyl-5-(4-methylphenyl)-1-(3,4,5-trimethoxy-phenyl)-1H-pyrazole], the IC50 in data set [1] stood at 2.35 ± 0.33 µM; in data set [2] it was 1.23 ± 0.15 µM; in data set [3], 0.53 ± 0.2 µM.

As for `COc1cc(-n2nc(C)cc2-c2ccc(F)cc2)cc(OC)c1OC` [Compound 7d, 3-Methyl-5-(4-fluorophenyl)-1-(3,4,5-trimethoxyphenyl)-1H-pyrazole], the melting point was 104 to 105 °C. Further, in data set [1], the IC50 was above 100 µM. The IC50 in data set [2] is above 100 µM. For the same molecule, the IC50 in data set [3] is 20.7 ± 1.2 µM.

`COc1ccc(-c2cc(C)nn2-c2cc(OC)c(OC)c(OC)c2)cc1F` [Compound 7e, 3-Methyl-5-(3-fluoro-4-methoxyphenyl)-1-(3,4,5-trimethoxyphenyl)-1H-pyrazole] displayed a melting point of 86 to 87 °C. Moreover, in data set [1], the IC50 was 2.84 ± 0.52 µM. Besides, the half-inhibitory concentration (IC50) in data set [2] is 5.52 ± 0.26 µM. In data set [3], the 50% inhibitory concentration (IC50) was determined as 3.05 ± 0.33 µM.

`C=CCOc1ccc(-c2cc(C)nn2-c2cc(OC)c(OC)c(OC)c2)cc1OC` [Compound 7f, 3-Methyl-5-(4-allyloxy-3-methoxyphenyl)-1-(3,4,5-trimethoxyphenyl)-1H-pyrazole] displayed a melting point of 78 to 79 °C. For the same molecule, the IC50 in data set [1] was above 100 µM. The IC50 in data set [2] was above 100 µM. Further, in data set [3], the 50% inhibitory concentration (IC50) came out at 23.6 ± 2.3 µM.

In the case of `C=CCOc1cc(-c2cc(C)nn2-c2cc(OC)c(OC)c(OC)c2)ccc1OC` [Compound 7g, 3-Methyl-5-(3-allyloxy-4-methoxyphenyl)-1-(3,4,5-trimethoxyphenyl)-1H-pyrazole], the melting point was in the range of 79 to 80 °C. Besides, in data set [1], the IC50 was above 100 µM. The IC50 in data set [2] was above 100 µM. In addition, the half-maximal inhibitory concentration (IC50) in data set [3] stood at 6.45 ± 0.22 µM.

As for `COc1ccc(-c2cc(C)nn2-c2cc(OC)c(OC)c(OC)c2)cc1[N+](=O)[O-]` [Compound 7h, 3-Methyl-5-(4-methoxy-3-nitrophenyl)-1-(3,4,5-trimethoxyphenyl)-1H-pyrazole], the melting point fell in the range of 145 to 146 °C. The IC50 in data set [1] is above 100 µM. The concentration for half-maximal inhibition (IC50) in data set [2] was above 100 µM. The IC50 in data set [3] is 5.22 ± 0.19 µM.

`COc1cc(-c2cc(C)nn2-c2cc(OC)c(OC)c(OC)c2)ccc1O` [Compound 7j, 3-Methyl-5-(4-hydroxy-3-methoxyphenyl)-1-(3,4,5-trimethoxyphenyl)-1H-pyrazole] displayed a melting point of 197 to 198 °C. The half-inhibitory concentration (IC50) in data set [1] is above 100 µM. In data set [2], the half-inhibitory concentration (IC50) is above 100 µM. Besides, in data set [3], the IC50 came out at 25.9 ± 2.3 µM.

`COc1ccc(-c2c(C=O)c(C)nn2-c2cc(OC)c(OC)c(OC)c2)cc1O` [Compound 7l, 4-Formyl-3-methyl-5-(3-hydroxy-4-methoxyphenyl)-1-(3,4,5-trimethoxyphenyl)-1H-pyrazole] returned a melting point of 97 to 98 °C. In addition, in data set [1], the 50% inhibitory concentration (IC50) was 45.7 ± 3.3 µM. Also, the IC50 in data set [2] was 23.8 ± 1.8 µM. Besides, the IC50 in data set [3] stood at 16.4 ± 1.5 µM.

Consider `COc1ccc(-c2c(CO)c(C)nn2-c2cc(OC)c(OC)c(OC)c2)cc1O` [Compound 7m, 4-Hydroxymethyl-3-methyl-5-(3-hydroxy-4-methoxy-phenyl)-1-(3,4,5-trimethoxyphenyl)-1H-pyrazole], for which the melting point lay in the range of 166 to 167 °C. Further, the IC50 in data set [1] came to 9.04 ± 0.25 µM. Further, the half-maximal inhibitory concentration (IC50) in data set [2] was determined as 7.11 ± 0.23 µM. Further, in data set [3], the 50% inhibitory concentration (IC50) was 8.42 ± 0.32 µM.
